In data set [1] the test system is acetylated LDL metabolism. The following applies: Whitman S.C. et al. 2005; cited from earlier work.
The nature of data set [2]: Photostability under UV irradiation. It counts as physicochemical. The following applies: UV irradiation 302 nm. The source says:
(§1) Enhanced stability of colloidal dispersion of curcumin-zein to various pH and UV irradiation was studied as follows.

A short description of data set [3]: Stability in simulated gastro-intestinal conditions (dissolution test, gastric and intestinal phase). The following applies: gastric phase pH 2 with pepsin in first 2 hours. It counts as physicochemical. The procedure:
To study the stability of the colloidal dispersion of particles according to the invention in simulated gastro-intestinal conditions, a dissolution test was carried out in simulated gastric and intestinal phases using following conditions. This test indicates whether the particles are suitable to be used as a delivery system for phenolic compounds to the human body. Zein-curcumin particles (5:1 wt/wt) were used. • For gastric phase: Water with 0.05% Tween , pH 2 in first 2 hours with pepsin • For intestinal phase: pH adjusted to 6.8 and bile salts and pancreatin added to the medium. • Sampling point: (5, 15, 30, 60, 90, 120 and 180 mins).

Data set [4] can be described thus: Water dispersibility, USP 2 dissolution test. It counts as physicochemical. The following applies: deionised water with 0.05% Tween 80. The procedure: The aim of the experiment is to see how well formulated curcumin disperses in aqueous media. […] Curcumin determined included both free as well as complexed or encapsulated curcumin. […] Samples were withdrawn at specified time interval (5, 15, 30, 60, 90, 120 and 180 mins) and analysed using UV-vis spectroscopic method.

A short description of another data set: pH stability in buffers. It counts as physicochemical. The following applies: for non-degraded: after 6 hours, 20 microgram per mL curcumin.
Source text: as §1

With `COc1ccc(-c2cc(=O)c3c(OC)c(OC)c(OC)c(OC)c3o2)cc1OC` [nobiletin], the “inhibited acetylated LDL metabolism” value in data set [1] was 50-72%.
Take `COc1cc(/C=C/C(=O)CC(=O)/C=C/c2ccc(O)c(OC)c2)ccc1O` [pure curcumin, Curcumin]: the unchanged curcumin level was 100% in data set [2] (0 min); 93.6% in data set [2] (5 min); 88.4% in data set [2] (10 min); 66.7% in data set [2] (15 min); 59.6% in data set [2] (30 min). Moreover, the release is 0% in data set [3] (0 min, then intestinal phase pH 6.8 with bile salts and pancreatin); 18.0 ± 2.0% in data set [3] (5 min, then intestinal phase pH 6.8); 18.3 ± 0.3% in data set [3] (15 min, then intestinal phase pH 6.8); 20.9 ± 2.2% in data set [3] (30 min, then intestinal phase pH 6.8); 21.7 ± 1.9% in data set [3] (60 min, then intestinal phase pH 6.8); 38.1 ± 0.5% in data set [3] (90 min, then intestinal phase pH 6.8). Moreover, the release in data set [3] (120 min, then intestinal phase pH 6.8) is listed as 36.9 ± 1.4%; in data set [3] (150 min, then intestinal phase pH 6.8) it was 37.6 ± 2.3%; in data set [3] (180 min, then intestinal phase pH 6.8) it was 37.0 ± 1.2%. Moreover, the cumulative release in data set [4] (0 min) amounted to 0%; in data set [4] (15 min), 18.1 ± 1.3%; in data set [4] (30 min), 19.1 ± 1.4%; in data set [4] (60 min), 22.6 ± 1.7%; in data set [4] (90 min), 25.7 ± 1.9%; in data set [4] (120 min) it was 27.8 ± 2.0%. In data set [4] (180 min), this compound returned a cumulative release of 32.8 ± 2.7%. The non-degraded in the data set “pH stability in buffers” (pH 1.2) turned out to be 56.0%; in “pH stability in buffers” (pH 4.5) it was 69.7%; in “pH stability in buffers” (pH 6.7), 67.6%; in the data set “pH stability in buffers” (pH 7.4), 66.6%; in the data set “pH stability in buffers” (pH 9.0), 52.9%. Further, the colour result in “pH stability in buffers” (pH 9.0) is “turned red in colour”.

These data come from patent EP2587940B1, “PARTICLES COMPRISING HYDROPHOBIC POLYMER AND HYDROPHOBIC PHENOLIC COMPOUND” (Unilever N.V., priority 2010, dated 2012).
